Assay results reported in patent US20210198277A1, “AMINE-SUBSTITUTED ARYL OR HETEROARYL COMPOUNDS” (Epizyme, Inc., priority 2016, published 2021).

Biological target: T1, EHMT2 (Homo sapiens, UniProt Q96KQ7)
T1 construct: host or cells: MDA-MB-231
T1 sequence (Q96KQ7 1-1210): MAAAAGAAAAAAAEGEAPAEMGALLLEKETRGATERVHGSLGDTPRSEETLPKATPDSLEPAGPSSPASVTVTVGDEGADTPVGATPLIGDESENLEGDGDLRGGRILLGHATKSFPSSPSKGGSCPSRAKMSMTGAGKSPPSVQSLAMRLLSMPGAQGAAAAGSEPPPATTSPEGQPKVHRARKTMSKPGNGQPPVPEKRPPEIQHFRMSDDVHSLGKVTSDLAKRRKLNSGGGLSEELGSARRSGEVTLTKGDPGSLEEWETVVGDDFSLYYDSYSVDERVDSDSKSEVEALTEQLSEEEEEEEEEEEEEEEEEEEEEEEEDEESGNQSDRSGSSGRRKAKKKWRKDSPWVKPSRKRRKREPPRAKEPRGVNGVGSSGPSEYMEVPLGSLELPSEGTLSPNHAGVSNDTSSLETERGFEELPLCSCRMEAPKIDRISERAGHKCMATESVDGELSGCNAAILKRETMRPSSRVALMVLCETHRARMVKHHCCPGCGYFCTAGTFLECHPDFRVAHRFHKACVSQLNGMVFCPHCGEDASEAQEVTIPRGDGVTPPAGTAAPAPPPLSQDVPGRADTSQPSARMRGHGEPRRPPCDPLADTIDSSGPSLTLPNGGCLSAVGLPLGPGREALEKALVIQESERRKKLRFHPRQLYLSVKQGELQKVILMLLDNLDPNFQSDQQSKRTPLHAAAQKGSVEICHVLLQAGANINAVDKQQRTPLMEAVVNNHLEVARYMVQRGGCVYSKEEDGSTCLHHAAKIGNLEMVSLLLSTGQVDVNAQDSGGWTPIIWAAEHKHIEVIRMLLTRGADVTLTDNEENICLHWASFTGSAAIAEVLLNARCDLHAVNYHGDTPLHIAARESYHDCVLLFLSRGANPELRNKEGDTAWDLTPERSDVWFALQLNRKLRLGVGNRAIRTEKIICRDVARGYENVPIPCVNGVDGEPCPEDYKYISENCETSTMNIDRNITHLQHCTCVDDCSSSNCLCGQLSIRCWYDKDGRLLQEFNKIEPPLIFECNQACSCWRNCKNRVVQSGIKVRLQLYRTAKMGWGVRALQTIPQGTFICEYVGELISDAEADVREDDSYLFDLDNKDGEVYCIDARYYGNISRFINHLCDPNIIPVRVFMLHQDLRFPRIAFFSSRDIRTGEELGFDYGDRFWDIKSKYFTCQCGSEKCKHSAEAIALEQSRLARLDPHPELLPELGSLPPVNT
Experiment: MDA-MB-231 H3K9me2 in-cell Western assay (EHMT2 ICW)
Format: cell-based
Details: Table III; MDA-MB-231 H3K9me2 in-cell Western; read-out: EHMT2 ICW (IC50 μM)
Summary of the method: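 Cellular dimethyl-H3K9 is quantified by in-cell Western in MDA-MB-231 cells treated with compound for 48 h. The H3K9me2 signal at 800 nm is normalised to DRAQ5 nuclear stain at 700 nm. IC50 is calculated from triplicate concentration points by nonlinear regression.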

`COc1ccc(Nc2cc(C)nc(O)n2)cc1OCCCN1CCCC1` [Compound 448, 4-((4-methoxy-3-(3-(pyrrolidin-1-yl)propoxy)phenyl)amino)-6-methylpyrimidin-2-ol] and `CNc1cc(N2CCCC2)nc(Nc2ccc(OC)c(OCCCN3CCCC3)c2)n1` [Compound 450, N^2-(4-methoxy-3-(3-(pyrrolidin-1-yl)propoxy)phenyl)-N^4-methyl-6-(pyrrolidin-1-yl)pyrimidine-2,4-diamine] cannot be ordered by IC50: > 10 µM for the first, > 10 µM for the second.

Compared with `CNc1cc(C)nc(Nc2ccc(OC)c(OCC3CCN(C4COC4)C3)c2)n1` (centres unmarked) [Compound 449, N^2-(4-methoxy-3-((1-(oxetan-3-yl)pyrrolidin-3-yl)methoxy)phenyl)-N^4,6-dimethylpyrimidine-2,4-diamine], `CNc1cc(C)nc(Nc2ccc(OC)c(OCC3CCCO3)c2)n1` (centres unmarked) [Compound 452, N^2-(4-methoxy-3-((tetrahydrofuran-2-yl)methoxy)phenyl)-N^4,6-dimethylpyrimidine-2,4-diamine] is higher in IC50: 0.1 to 1 µM for the first, > 10 µM for the second. The first is the more potent here.

Compound `COc1ccc(Nc2nc(C)cc(NCC3CCOCC3)n2)cc1OCC1CCN(C)C1` (centres unmarked) [Compound 451, N^2-(4-methoxy-3-((1-methylpyrrolidin-3-yl)methoxy)phenyl)-6-methyl-N^4-((tetrahydro-2H-pyran-4-yl)methyl)pyrimidine-2,4-diamine] has an IC50 of 1 to 10 µM.
